For experiment [1], the system named is HaCaT cells (EGFR expressing cell line). As to the kind of experiment: HaCaT cell proliferation inhibitory activity (CellTiter-Glo, 72 hours). The class given is cell-based. Particulars: Homo sapiens. The gist of the method: (§1)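 Cells seeded 24 h (HaCaT 3000/well, N-87 5000/well) or 48 h (SK-BR-3, BT-474 5000/well) before 11-point dosing: 0.2 nM–10 μM (SK-BR-3, BT-474), […]–5 μM (N-87), 0.8 nM–45 μM (HaCaT). CellTiter-Glo luminescence read; GI50 from growth relative to control, triplicate.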
A general note: In ATP-based viability assays light output follows the ATP content of the culture.

Experiment [2] concerns SK-BR-3 cells (HER2 overexpressing cell line). As to the kind of experiment: SK-BR-3 cell proliferation inhibitory activity (CellTiter-Glo, 120 hours). Particulars: Homo sapiens. The class given is cell-based. The gist of the method: as §1

This passage reports GI50 results from patent US20240246940A1, “HETEROARYL DERIVATIVE COMPOUND AND USE THEREOF” (VORONOI INC., priority 2021, published 2024).

As usually defined, the GI50 is the concentration giving 50% growth inhibition.

Take `C=CC(=O)N1CC(Oc2cc3c(Nc4cc(-c5cccc(NC(=O)N6C(=O)OC[C@@H]6c6ccccc6)c5)ccc4OC)ncnc3cc2OC)C1` [Example 237, (S)-N-(3′-((6-((1-acryloylazetidin-3-yl)oxy)-7-methoxyquinazolin-4-yl)amino)-4′-methoxy-[1,1′-biphenyl]-3-yl)-2-oxo-4-phenyloxazolidin-3-carboxamide]: the values for the concentration for 50% growth inhibition (GI50) in experiment [1] and in experiment [2] were more than 1000 nM and 150 to 1000 nM, respectively.

As to `C=CC(=O)N1CCC(Oc2cc3c(Nc4cc(-c5cc(F)cnc5F)ccc4OC)ncnc3cc2OC)CC1` [Example 145, 1-(4-((4-((5-(2,5-difluoropyridin-3-yl)-2-methoxyphenyl)amino)-7-methoxy-quinazolin-6-yl)oxy)piperidin-1-yl)prop-2-en-1-one], the GI50 in experiment [1] and in experiment [2] was not above 150 nM in each case.

For `C=CC(=O)N1CC(Oc2cc3c(Nc4cc(-c5ccco5)ccc4OC4CCN(C)C4)ncnc3cc2OC)C1` (stereo not shown) [Example 241, 1-(3-((4-((5-(furan-2-yl)-2-((1-methylpyrrolidin-3-yl)oxy)phenyl)amino)-7-methoxyquinazolin-6-yl)oxy)azetidin-1-yl)prop-2en-1-one], the GI50 in experiment [1] and in experiment [2] was not above 150 nM each time.

As to `C=CC(=O)N1CCC(Oc2cc3c(Nc4cc(-c5ccc6occc6c5)ccc4OC)ncnc3cc2OC)CC1` [Example 71, 1-(4-((4-((5-(benzofuran-5-yl)-2-methoxyphenyl)amino)-7-methoxy-quinazolin-6-yl)oxy)piperidin-1-yl)prop-2-en-1-one], the values for the GI50 in experiment [1] and in experiment [2] were more than 1000 nM and 150 to 1000 nM, respectively.

As for `C=CC(=O)N1CCC(Oc2cc3c(Nc4cc(-c5cnoc5)ccc4OC)ncnc3cc2OC)CC1` [Example 85, 1-(4-((4-((5-(isoxazol-4-yl)-2-methoxyphenyl)amino)-7-methoxy-quinazolin-6-yl)oxy)piperidin-1-yl)prop-2-en-1-one], the concentration for 50% growth inhibition (GI50) in experiment [1] and in experiment [2] was not above 150 nM each time.

`C=CC(=O)N1CC(Oc2cc3c(Nc4cc(-c5ccc6occc6c5)ccc4OCC)ncnc3cc2OC)C1` [Example 57, 1-(3-((4-((5-(benzofuran-5-yl)-2-ethoxyphenyl)amino)-7-methoxy-quinazolin-6-yl)oxy)azetidin-1-yl)prop-2-en-1-one]: the concentration for 50% growth inhibition (GI50) in experiment [1] and in experiment [2] was 150 to 1000 nM each time.

As to `C=CC(=O)Nc1cc2c(Nc3cc(-c4ccoc4C)ccc3OC)ncnc2cc1OC` [Example 290, N-(7-methoxy-4-((2-methoxy-5-(2-methylfuran-3-yl)phenyl)amino)quinazolin-6-yl)acrylamide], the GI50 in experiment [1] is not above 150 nM; in experiment [2], 150 to 1000 nM.

`C=CC(=O)N1CC(Oc2cc3c(Nc4cc(-c5csc6ccccc56)ccc4OC)ncnc3cc2OC)C1` [Example 41, 1-(3-((4-((5-(benzo[b]thiophen-3-yl)-2-methoxyphenyl)amino)-7-methoxy-quinazolin-6-yl)oxy)azetidin-1-yl)prop-2-en-1-one]: the concentration for 50% growth inhibition (GI50) in experiment [1] and in experiment [2] was not above 150 nM throughout.

As to `C=CC(=O)N1CC(Oc2cc3c(Nc4cc(-c5ccc(F)cc5F)ccc4OC)ncnc3cc2OC)C1` [Example 13, 1-(3-((4-((2′,4′-difluoro-4-methoxy-[1,1′-biphenyl]-3-yl)amino)-7-methoxy-quinazolin-6-yl)oxy)azetidin-1-yl)prop-2-en-1-one], the GI50 in experiment [1] and in experiment [2] was not above 150 nM each time.

Regarding `C=CC(=O)N1CCC(Oc2cc3c(Nc4cc(-c5ccco5)ccc4OC4COC4)ncnc3cc2OC)CC1` [Example 255, 1-(4-((4-((5-(furan-2-yl)-2-(oxetan-3-yloxy)phenyl)amino)-7-methoxyquinazolin-6-yl)oxy)piperidin-1-yl)prop-2-en-1-one], the GI50 in experiment [1] and in experiment [2] was not above 150 nM throughout.

For the compound `C=CC(=O)N1CC(Oc2cc3c(Nc4cc(-c5coc6ccccc56)ccc4OC)ncnc3cc2OC)C1` [Example 40, 1-(3-((4-((5-(benzofuran-3-yl)-2-methoxyphenyl)amino)-7-methoxy-quinazolin-6-yl)oxy)azetidin-1-yl)prop-2-en-1-one], the GI50 in experiment [1] is not above 150 nM; in experiment [2], 150 to 1000 nM.

`C=CC(=O)N1CC(Oc2cc3c(Nc4cc(-c5ccc(F)c(F)c5)ccc4OC)ncnc3cc2OC)C1` [Example 29, 1-(3-((4-((3′,4′-difluoro-4-methoxy-[1,1′-biphenyl]-3-yl)amino)-7-methoxy-quinazolin-6-yl)oxy)azetidin-1-yl)prop-2-en-1-one]: the GI50 in experiment [1] and in experiment [2] was not above 150 nM in each case.

As to `C=CC(=O)N1CC(Oc2cc3c(Nc4cc(-c5cccc6ncnn56)ccc4OC)ncnc3cc2OC)C1` [Example 128, 1-(3-((4-((5-([1,2,4]triazolo[1,5-a]pyridin-5-yl)-2-methoxyphenyl)amino)-7-methoxy-quinazolin-6-yl)oxy)azetidin-1-yl)prop-2-en-1-one], the GI50 in experiment [1] and in experiment [2] was 150 to 1000 nM throughout.

With `C=CC(=O)N1CCC(Oc2cc3c(Nc4cc(-c5cc(C)cs5)ccc4OC)ncnc3cc2OC)CC1` [Example 83, 1-(4-((7-methoxy-4-((2-methoxy-5-(4-methylthiophen-2-yl)phenyl)amino)quinazolin-6-yl)oxy)piperidin-1-yl)prop-2-en-1-one], the 50% growth inhibitory concentration (GI50) in experiment [1] and in experiment [2] was 150 to 1000 nM each time.

Take `C=CC(=O)N1CC(Oc2cc3c(Nc4cc(-c5cccs5)ccc4OCC)ncnc3cc2OC)C1` [Example 54, 1-(3-((4-((2-ethoxy-5-(thiophen-2-yl)phenyl)amino)-7-methoxy-quinazolin-6-yl)oxy)azetidin-1-yl)prop-2-en-1-one]: the concentration for 50% growth inhibition (GI50) in experiment [1] and in experiment [2] was not above 150 nM throughout.

`C=CC(=O)N1CC(Oc2cc3c(Nc4cc(-c5ccoc5C)ccc4OC)ncnc3cc2OC)C1` [Example 51, 1-(3-((7-methoxy-4-((2-methoxy-5-(2-methylfuran-3-yl)phenyl)amino)quinazolin-6-yl)oxy)azetidin-1-yl)prop-2-en-1-one]: the GI50 in experiment [1] and in experiment [2] was not above 150 nM each time.

As for `C=CC(=O)N1CC(Oc2cc3c(Nc4cc(-c5ccc(F)c(C#N)c5)ccc4OC)ncnc3cc2OC)C1` [Example 14, 3′-((6-((1-acryloylazetidin-3-yl)oxy)-7-methoxy-quinazolin-4-yl)amino)-4-fluoro-4′-methoxy-[1,1′-biphenyl]-3-carbonitrile], the GI50 in experiment [1] and in experiment [2] was not above 150 nM each time.

With `C=CC(=O)Nc1cc2c(Nc3cc(-c4ccco4)ccc3OC)ncnc2cc1OCCN1CCOCC1` [Example 271, N-(4-((5-(furan-2-yl)-2-methoxyphenyl)amino)-7-(2-morpholinoethoxy)quinazolin-6-yl)acrylamide], the GI50 in experiment [1] and in experiment [2] was not above 150 nM throughout.

Turning to `C=CC(=O)N1CC(Oc2cc3c(Nc4cc(-c5cccc(F)c5)ccc4OC)ncnc3cc2OC)C1` [Example 8, 1-(3-((4-((3′-fluoro-4-methoxy-[1,1′-biphenyl]-3-yl)amino)-7-methoxy-quinazolin-6-yl)oxy)azetidin-1-yl)prop-2-en-1-one], the GI50 in experiment [1] and in experiment [2] was not above 150 nM each time.

Take `C=CC(=O)N1CCC(Nc2cc3c(Nc4cc(-c5ccco5)ccc4OC)ncnc3cc2OCCCOC)CC1` [Example 274, 1-(4-((4-((5-(furan-2-yl)-2-methoxyphenyl)amino)-7-(3-methoxypropoxy)quinazolin-6-yl)amino)piperidin-1-yl)prop-2-en-1-one]: the concentration for 50% growth inhibition (GI50) in experiment [1] and in experiment [2] was not above 150 nM throughout.

On to `C=CC(=O)N1CCC(Oc2cc3c(Nc4cc(-c5ccc(F)cc5F)ccc4OC)ncnc3cc2OC)CC1C(F)(F)F` (stereo not shown) [Example 165, 1-(4-((4-((2′,4′-difluoro-4-methoxy-[1,1′-biphenyl]-3-yl)amino)-7-methoxy-quinazolin-6-yl)oxy)-2-(trifluoromethyl)piperidin-1-yl)prop-2-en-1-one], for which the GI50 in experiment [1] was 150 to 1000 nM; in experiment [2] it was more than 1000 nM.

On to `C=CC(=O)N1CCC(Oc2cc3c(Nc4cc(-c5ccc(F)nc5F)ccc4OC)ncnc3cc2OC)CC1` [Example 147, 1-(4-((4-((5-(2,6-difluoropyridin-3-yl)-2-methoxyphenyl)amino)-7-methoxy-quinazolin-6-yl)oxy)piperidin-1-yl)prop-2-en-1-one], for which the 50% growth inhibitory concentration (GI50) in experiment [1] and in experiment [2] was 150 to 1000 nM in each case.

Turning to `C=CC(=O)N1CC(Oc2cc3c(Nc4cc(-c5cccs5)ccc4OC4CCN(C)C4)ncnc3cc2OC)C1` (stereo not shown) [Example 240, 1-(3-((7-methoxy-4-((2-((1-methylpyrrolidin-3-yl)oxy)-5-(thiophen-2-yl)phenyl)amino)quinazolin-6-yl)oxy)azetidin-1-yl)prop-2-en-1-one], the GI50 in experiment [1] and in experiment [2] was not above 150 nM in each case.

For the compound `C=CC(=O)N1CC(Oc2cc3c(Nc4cc(-c5ccco5)ccc4OCC)ncnc3cc2OC)C1` [Example 55, 1-(3-((4-((2-ethoxy-5-(furan-2-yl)phenyl)amino)-7-methoxy-quinazolin-6-yl)oxy)azetidin-1-yl)prop-2-en-1-one], the GI50 in experiment [1] and in experiment [2] was not above 150 nM in each case.

`C=CC(=O)N1CC[C@@H](Oc2cc3c(Nc4cc(-c5ccco5)ccc4OC)ncnc3cc2OC)[C@H](F)C1` (relative stereo) [Example 179, 1-(trans-3-fluoro-4-((4-((5-(furan-2-yl)-2-methoxyphenyl)amino)-7-methoxy-quinazolin-6-yl)oxy)piperidin-1-yl)prop-2-en-1-one]: the GI50 in experiment [1] and in experiment [2] was not above 150 nM each time.

Regarding `C=CC(=O)N1CC(Oc2cc3c(Nc4cc(-c5cccc(F)c5Cl)ccc4OC)ncnc3cc2OC)C1` [Example 18, 1-(3-((4-((2′-chloro-3′-fluoro-4-methoxy-[1,1′-biphenyl]-3-yl)amino)-7-methoxy-quinazolin-6-yl)oxy)azetidin-1-yl)prop-2-en-1-one], the GI50 in experiment [1] and in experiment [2] was not above 150 nM in each case.
